# Laboratory results taken from US11779618B2, “Treatment of topical and systemic bacterial infections” (priority 2014, dated 2023).
# System: S. aureus 8588
# Assay: Effectiveness against S. aureus 8588 (absorbance, Mueller-Hinton broth)
# Type: cell-based
# Conditions: 0.01 mg/ml ampicillin (below MIC)
# Source text: The absorbance readings of treatments above the MIC were similar to the negative control of Mueller-Hinton broth alone indicating no bacterial growth.
# The absorbance readings of the phage K treated wells were similar to the negative control Mueller-Hinton broth alone.
structure (smiles),measurement,value
CC1(C)S[C@@H]2[C@H](NC(=O)[C@H](N)c3ccccc3)C(=O)N2[C@H]1C(=O)O [ampicillin],effect on bacterial growth,has some effect on bacterial growth but is not totally effective
